Measurements published in patent publication US10814036B2, “Drug-eluting live tissue for transplantation” (BAYLOR UNIVERSITY, priority 2016, dated 2020).
“Also recorded” adds a separate entry of the source.

Tests used:
[1] = target: T1, TLR4 (Mus musculus, UniProt Q9QUK6); assay: LPS challenge of drug-eluting mouse islets, IL-6 expression (Example 15); type: cell-based; settings: for protection from LPS challenge (IL-6 expression): 24 h after modification or treatment
T1 construct: from tissue; host or cells: pancreatic islets of C57BL/6 mice
T1 sequence (Q9QUK6 26-835): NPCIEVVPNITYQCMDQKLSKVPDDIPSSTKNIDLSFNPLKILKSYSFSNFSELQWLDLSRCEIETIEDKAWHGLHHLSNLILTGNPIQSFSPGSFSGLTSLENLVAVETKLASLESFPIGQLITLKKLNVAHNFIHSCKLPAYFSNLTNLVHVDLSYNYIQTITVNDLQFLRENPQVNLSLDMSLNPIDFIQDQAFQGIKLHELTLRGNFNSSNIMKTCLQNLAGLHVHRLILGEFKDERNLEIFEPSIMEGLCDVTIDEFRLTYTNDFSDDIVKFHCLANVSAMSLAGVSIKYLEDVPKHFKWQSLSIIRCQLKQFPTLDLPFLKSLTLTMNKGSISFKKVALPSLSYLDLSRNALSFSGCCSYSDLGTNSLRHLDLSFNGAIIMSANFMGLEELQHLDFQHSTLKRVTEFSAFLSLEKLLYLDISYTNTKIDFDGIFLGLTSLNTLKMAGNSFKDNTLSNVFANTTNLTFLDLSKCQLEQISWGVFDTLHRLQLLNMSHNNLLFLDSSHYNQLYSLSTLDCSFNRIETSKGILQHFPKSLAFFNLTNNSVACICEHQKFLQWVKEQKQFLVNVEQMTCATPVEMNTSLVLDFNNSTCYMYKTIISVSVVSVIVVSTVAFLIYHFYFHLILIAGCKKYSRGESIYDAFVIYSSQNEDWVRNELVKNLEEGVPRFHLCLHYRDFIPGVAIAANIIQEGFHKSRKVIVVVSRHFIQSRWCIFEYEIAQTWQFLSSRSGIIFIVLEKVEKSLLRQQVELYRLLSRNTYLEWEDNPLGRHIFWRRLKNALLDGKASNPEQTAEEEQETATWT
Protocol: (§1) In order to study the function and efficacy of the cleavable prodrug, in vitro experiments were performed challenging mouse islets with LPS at different times post-modification. […] HEK Blue hTLR4 reporter cells were treated with either free TAK-242 or the TAK-PhSO2-Linker prodrug, followed by LPS challenge.
(§2) Data represented as means±SEM (n=3 per group). Statistical significance determined by two-tailed unpaired t test. n.s. means not significant.

[2] = target: T1, TLR4; assay: Extended protection of modified islets, IL-6 mRNA after LPS challenge (Example 5); type: cell-based, murine; settings: LPS 2 ug/mL 4 hrs, 24 hrs after treatment or islet modification; unprotected islets ~59-fold
Protocol: Compared to free TAK-242 pre-treatment, the TAK-Linker compound covalently attached to the islet surface provides extended protection.
First, islets were modified with either TAK-Linker or TAK-HexOH (1 hr NHS-DBCO followed by 1 hr TAK compounds), or treated with free TAK-242 (3 uM, 30 min @37° C.). All islets were rinsed with culture media (RPMI 1640, 10% FBS) prior to culturing. After overnight culture, the treated groups were challenged with LPS (2 ug/mL, 4 hrs @ 37° C.), a TLR4-specific agonist, and compared to unprotected islets (LPS) and unprotected/untreated control islets.
Total RNA was isolated from the islets for mRNA analysis. The gene expression of cytokine IL-6 was used for evaluation due to its key role in acute inflammation.

[3] = test system: streptozotocin-induced diabetes; assay: Syngeneic islet transplant in streptozotocin-induced diabetic mice; type: in vivo, C57BL/6 mice
Protocol: With the promising in vitro results described above, islet transplantation experiments were performed in a syngeneic wild-type C57BL/6 streptozotocin-induced diabetes model. Recipient male C57BL/6 mice 6-7 weeks old were made diabetic by a single intraperitoneal injection of streptozotocin (200 mg/kg; Sigma-Aldrich). Diabetic mice are defined as having a nonfasting blood glucose >400 mg/dL for 2 consecutive days. Prior to transplantation, islets were untreated, pretreated with 3 μM TAK-242, or modified with TAK-PhSO2-Linker as described above. Diabetic C57BL/6 mice were anesthetized under isofluorane, and a field between the rib cage and pelvis on the left side was disinfected by 1% providone iodine scrub and 70% ethanol. A minimal incision (˜8 to 10 mm) into the peritoneum was made to expose the kidney, and a small cut (˜2 mm) was made in the kidney capsule using a 30G needle. Then a flame-blunted glass pipette tip was inserted into the kidney capsule through the cut to create a pocket between the renal cortex and capsule. Islets were then injected into the pocket via PE-50 polyethylene tubing (Becton Dickinson) connected to a 1 mL syringe filled with RPMI 1640 driven by an NE-300 syringe pump (New Era Pump Systems). At the completion of islet infusion, the incision was closed with 4-0 violet monofilament (Ethicon) via continuous nonlocking sutures. After closing, mice received a 0.1 mg/kg bolus of buprenorphine subcutaneously near the incision. Engraftment success was measured by nonfasting blood glucose measurements 5 times a week over a 4-week period with a Breeze 2 Glucose Monitor (Bayer). Mice were considered cured on the first day of two consecutive glucose measurements below 200 mg/dL (˜11 mM).
Diabetic mice were separated into untreated (n=4), TAK-242 (n=6), and TAK-PhO2-Linker (n=6) groups. A marginal dose of ˜100 islets was determined by titrating doses of TAK-242-treated islets. […] Diabetic C57BL/6 mice were transplanted with (FIG. 33A) 200, (FIG. 33B) 150, or (FIG. 33C) 100 TAK-242-treated islets. Blood glucose was monitored for 4 weeks before IPGTT on day 30 and at nephrectomy on day 35. […] This marginal dose was transplanted into the kidney subcapsular space in each group, and blood glucose was monitored for 4 weeks.

[4] = test system: TLR4; settings: human and murine models; depending on cell type; read-out: TLR4 inhibition IC50; cited from earlier work
[5] = target: T1, TLR4; assay: rHMGB1 challenge of mouse islets, gene expression analysis; type: cell-based, C57BL/6 mice; settings: 1 μg/mL rHMGB1, 4 h, TAK-242 pretreatment
Protocol: Similar results were observed when islets were challenged with high-mobility group box 1 (HMGB1; FIG. 26), an endogenous damage-associated molecular pattern (DAMP) known to elicit acute inflammation through TLR4. […] Islets from C57BL/6 mice were challenged with 1 μg/mL rHMGB1 with or without TAK-242 pretreatment. After 4 h, total RNA was isolated from the islets for gene expression analysis. The proinflammatory genes (A) CXCL10 and (B) CCL2 were examined in the samples. Data represented as means±SEM. *P<0.05 (n=3 for all samples, unpaired two-tailed t test).

[6] = target: T1, TLR4; assay: LPS challenge of mouse islets, RT-PCR gene expression and multiplex cytokine analysis; type: cell-based, C57BL/6 mice
Protocol: To initially investigate whether free TAK-242 can protect islets from TLR4-mediated inflammation, inflammatory responses in islets from C57BL/6 mice challenged with the canonical TLR4 ligand lipopolysaccharide (LPS) were examined. As discussed in detail below, islets were treated with TAK-242 (3 μM for 30 min) before a 24-h challenge with a high dose of LPS (2 μg/mL). After 24 h, culture media was analyzed by multiplex assay, and mRNA was isolated from islet cells for analysis by real-time polymerase chain reaction (RT-PCR).
Materials and Methods. After overnight culture, islets were washed in Dulbecco's PBS (Caisson Labs, Smithfield, Utah, USA) before treatment with TAK-242 (3 μM, 30 min; MedchemExpress) and 2 μg/mL LPS-EB (Ultrapure from Escherichia coli O111:B4; Invivogen) for 24 h at 37° C. and 5% CO2. Islets were washed once with cold Dulbecco's PBS immediately after treatment, and total RNA was isolated from samples using TRIzol […] and converted to cDNA using a high capacity cDNA reverse transcription kit (Applied Biosystems) following manufacturer protocols. Quantitative expression of genes of interest was determined using RT2 SYBR Green qPCR master mix (Qiagen) on a Bio-Rad CFX Connect (Bio-Rad) with the following program: 95° C., 10 min and 40 cycles of 95° C., 15 sec, 60° C., 1 min. Primers for quantitative real-time PCR analysis were purchased from commercially available stock from Integrated DNA Technologies (Coralville). Relative gene expression was calculated using the 2-ΔΔCT method normalized to 18S mRNA. Cytokines from assay culture media were analyzed using Milliplex MCYTOMAG-70K Assay (EMD Millipore). Samples were prepared following manufacturer guidelines. Analysis was performed after overnight incubation at 4° C. on a Luminex 200 (Luminex). Samples were assayed in triplicate and analyzed in triplicate for cDNA or in duplicate for multiplex assay.

[7] = target: T2, hTLR4 (Homo sapiens, UniProt O00206); assay: HEK Blue hTLR4 reporter cells, TLR4-mediated NFkB upregulation, colorimetric assay; type: cell-based; settings: brief treatment, unconjugated compound
T2 construct: expressed in transfected cells; host or cells: HEK Blue hTLR4 reporter cells
T2 sequence (O00206 24-839): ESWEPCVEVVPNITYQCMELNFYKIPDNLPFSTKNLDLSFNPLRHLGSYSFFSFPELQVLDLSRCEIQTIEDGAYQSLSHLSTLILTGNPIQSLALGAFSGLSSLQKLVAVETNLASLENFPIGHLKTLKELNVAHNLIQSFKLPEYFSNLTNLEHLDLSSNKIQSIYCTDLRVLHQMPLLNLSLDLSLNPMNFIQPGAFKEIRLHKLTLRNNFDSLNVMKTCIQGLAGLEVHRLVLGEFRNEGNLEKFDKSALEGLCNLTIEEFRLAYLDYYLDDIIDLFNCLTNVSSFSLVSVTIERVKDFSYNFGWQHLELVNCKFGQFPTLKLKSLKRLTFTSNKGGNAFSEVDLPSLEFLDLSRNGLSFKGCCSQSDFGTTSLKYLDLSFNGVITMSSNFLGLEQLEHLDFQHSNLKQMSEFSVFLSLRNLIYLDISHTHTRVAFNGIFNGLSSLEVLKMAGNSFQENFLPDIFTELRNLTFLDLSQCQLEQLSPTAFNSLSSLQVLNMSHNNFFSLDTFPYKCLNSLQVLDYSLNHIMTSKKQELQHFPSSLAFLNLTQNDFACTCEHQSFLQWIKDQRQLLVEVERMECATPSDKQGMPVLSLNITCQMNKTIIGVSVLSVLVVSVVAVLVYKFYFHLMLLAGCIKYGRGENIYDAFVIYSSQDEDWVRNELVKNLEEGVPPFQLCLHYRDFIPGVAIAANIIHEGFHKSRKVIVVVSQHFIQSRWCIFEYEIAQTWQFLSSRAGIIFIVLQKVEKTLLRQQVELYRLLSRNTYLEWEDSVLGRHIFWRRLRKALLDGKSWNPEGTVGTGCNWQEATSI
Protocol: as §1, §2

[8] = test system: MIN6 cells; assay: MTT viability assay in MIN6 beta cells; type: cell-based; settings: days 1, 3 and 7, effective concentrations
Protocol: MIN6 cells were seeded in a 96-well plate at 15,000 cells per well in RPMI. After overnight culture, culture media was replaced with media containing the indicated TAK-242 concentrations. The control (0 nM TAK-242) contained 0.1% DMSO. Media was changed on day 3. On days 1, 3, and 7, an MTT viability assay was performed. Data are represented as means±SEM. P>0.05 for all samples (one-way ANOVA with Tukey's multiple-comparisons test).

[9] = Linker prodrug stability and release kinetics in PBS by LC-MS; type: physicochemical; settings: phosphate-buffered saline; PBS pH 7.4, 37° C.; read-out: half-life of TAK-PhSO2-Linker (release of free TAK-242) (converted)
Protocol: The stability of the linker prodrug was explored in this example. The TAK-PhSO2-Linker compound was incubated in phosphate-buffered saline (PBS; pH 7.4) at 37° C., and the solution sampled over the course of several days. Liquid chromatography-mass spectrometry (LC-MS) was used to identify and quantitate the compounds released from this prodrug.

In the case of `O=C(CCC(=O)N1Cc2ccccc2C#Cc2ccccc21)NCCOCCOCCOCCOCCC(=O)ON1C(=O)CCC1=O` [NHS-PEG4-DBCO, dibenzocyclooctyne-PEG4-N-hydroxysuccinimidyl ester], the “protection against LPS-mediated inflammation (IL-6)” value ([1]; islet surfaces functionalized only, no prodrug) is reported as “no protection against LPS-mediated inflammation”.

For `CCOC(=O)C1=CCCCC1S(=O)(=O)Nc1ccc(F)cc1Cl` (stereo not shown) [TAK-242, ethyl 6-(N-(2-chloro-4-fluorophenyl)sulfamoyl)cyclohex-1-ene-1-carboxylate], the “protection from LPS challenge (IL-6 expression)” value [1] was “beings to lose its effectiveness by 24 h; also recorded: provided protection from TLR4-mediated inflammation 24 hours post treatment”, the “inhibition of LPS-mediated inflammation” value ([1]; immediately after treatment) was “completely inhibit LPS-mediated inflammation” and the “increase in IL-6 expression” value [2] was ~32 fold. For the same molecule, the “cure time and glycemic control, islet dose titration” value ([3]; 100 TAK-242-treated islets) was “delayed cure time and exhibited significant average glycemic lability”, the “mean nonfasting blood glucose” value ([3]; 100 islets, 4 weeks) was “demonstrated some control” and the “mean time to cure” value ([3]; 100 islets, cured = two consecutive glucose measurements below 200 mg/dL) was 21.0 ± 4.9 days. The “cure time and glycemic control, islet dose titration” value ([3]; 200 and 150 TAK-242-treated islets) was “quick cure times and good glycemic control”, the IC50 [4] was 0.001 to 0.033 µM and the “CXCL10 and CCL2 gene expression after rHMGB1 challenge” value [5] was “protection of mouse islets against rHMGB1-mediated TLR4 inflammation”. For the same molecule, the CXCL10 gene expression ([6]; 3 μM TAK-242 pretreatment 30 min, 24 h after 2 μg/mL LPS, LPS alone 26-fold) was 0.91 fold, the CCL2 gene expression ([6]; 3 μM TAK-242 pretreatment 30 min, 24 h after 2 μg/mL LPS, LPS alone 55-fold) was 1.01 fold and the “proinflammatory cytokines IL-6, CXCL1, CXCL10, CCL2, TNF-α in culture media” value ([6]; TAK-242 pretreatment, 24 h after LPS challenge, versus LPS alone) was “significantly lower levels of these cytokines”. The “inhibition of TLR4-mediated NFkB upregulation after LPS challenge” value [7] was “completely blocked LPS; also recorded: completely inhibited the upregulation of NFkB” and the “toxicity to beta cells (MTT viability)” value [8] was “negligible toxicity”.

In the case of `CCOC(=O)C1=CCCCC1S(=O)(=O)N(C(=O)OC(CCCCCN=[N+]=[N-])CS(=O)(=O)c1ccccc1)c1ccc(F)cc1Cl` (stereo not shown) [TAK-PhSO2-Linker], the “protection from LPS challenge (IL-6 expression)” value [1] is reported as “significantly protected from LPS challenge; also recorded: significantly better than that of free TAK-242 alone; also recorded: significantly protected against LPS-mediated inflammation”, the “increase in IL-6 expression” value [2] is reported as ~3 fold and the half-life [9] is reported as ~25 h. For the same molecule, the “inhibition of TLR4-mediated NFkB upregulation after LPS challenge” value [7] was “negligible TLR4-antagonist activity; also recorded: provided no protection; also recorded: no significant protection”.
